Assay results from patent US6071707A, “Phosphotyrosine mimics and method for identifying and using same” (Boehringer Ingelheim Pharmaceuticals, Inc., priority 1997, dated 2000).

System: anti-phosphotyrosine antibody (MAb PY-20)
Test: Method for identifying phosphotyrosine mimics: competitive binding to anti-phosphotyrosine antibody (ELISA)
Design: species or system mouse
Details: ELISA criterion: 50% or greater inhibition of anti-phosphotyrosine binding 15 μg/ml; biotinylated peptide ECQ(pY)QPQP
Text: The present invention also provides a convenient and sensitive method for identifying phosphotyrosine mimics by utilizing anti-phosphotyrosine antibodies to rapidly screen large numbers of non-phosphorylated test compounds. Specifically, this method comprises the steps of:
(a) contacting a non-phosphorylated test compound and a phosphotyrosine-containing substance with an anti-phosphotyrosine antibody; and
(b) detecting the ability of the non-phosphorylated test compound to inhibit the binding of the anti-phosphotyrosine antibody to the phosphotyrosine-containing substance.
A 96 well microtiter plate (Pierce #15126, Reacti-Bind Streptvidin coated polystyrene) was coated with 100 μl of biotinylated peptide ECQ(pY)QPQP (MW=1367.5) at a concentration of 15 nM in Tris Buffered Saline (TBST) (10 mM Tris.HCl, pH 7.5, 100 mM NaCl, 0.1% Tween 20) for 45 minutes at room temperature. The microtiter plate was washed 4 times with TBST. MAb PY-20 (Zymed #03-7799) was pre incubated for 45 minutes at a 2× concentration of 0.078 μg/ml ([…]) with a 2× concentration of non-phosphorylated test compounds in TBST. 100 μl of test compound/antibody solution was added in duplicate to each of the wells and incubated at room temperature. The microtiter plate was washed 4 times with TBST. […] Optical density was measured at 405 nm. […]

O=C(O)c1ccccc1 [phenyl carboxylic acid]
identification as phosphotyrosine mimic (inhibition of anti-phosphotyrosine antibody binding to a phosphotyrosine-containing substance): identified as a phosphotyrosine mimic
